Test [1] deals with conditioned avoidance responding. Description: Conditioned avoidance, shelf-jump response. Format: in vivo, rat (male CD, Charles River). As to conditions: Rattus norvegicus, ip; single dose 40 mg/kg. The source says: (§1) The antipsychotic properties of the compounds of this invention were established by standard pharmacologically accepted procedures involving conditioned avoidance studies in which trained male CD rats (Charles River), 400-450 g. body weight are exposed to a fifteen second warning tone (conditioned stimulus) continued for an additional fifteen seconds accompanied by electric shock. The rat can avoid the electric shock by jumping to an exposed shelf (shelf-jump response). A response during the initial warning tone is considered an avoidance response, while a response during shock delivery is considered as escape response. The shelf-jump response test procedure follows that of Herman et al., Comm. in Psychopharm., 3, pp. 165-171 (1979). The compounds of this invention were tested at a single dose (40 mg./kg. i.p.) in this procedure and were rated relative to their inhibition of conditioned avoidance responding. A similar test procedure (Discrete Trial) in which a lever press was substituted for a shelf-jump was used to establish the oral (p.o.) activity of the test compounds. Orally active compounds were tested over a full dose range and the Avoidance Block activities reported as "AB50 's" (mg./kg.).

Test [2] shares this test system. Description: Conditioned avoidance, Discrete Trial (lever press). It is filed as in vivo, rat (male CD, Charles River). As to conditions: for Conditioned Avoidance, Discrete Trial AB50: p.o.; for ED50: Rattus norvegicus, po, read-out: Conditioned Avoidance, Discrete Trial AB50.
Source text: as §1

The subject of test [3] is apomorphine-induced stereotyped behavior and climbing. Description: Antagonism of apomorphine-induced stereotyped behavior and climbing. Format: in vivo, mouse (CF-1, Charles River). As to conditions: for Apomorphine Antagonism, Stereotypy ED50 / Apomorphine Antagonism, Climbing ED50: p.o.; for Apomorphine Antagonism, Stereotypy ED50 / ED50 / Apomorphine Antagonism, Climbing ED50: apomorphine 1 mg/kg s.c.; for ED50: Mus musculus, po; for Ratio of ED50 for stereotyped behavior to ED50 for climbing: standard antipsychotic drugs, high ratio = low extrapyramidal liability. On the procedure:
Readings are repeated every five minutes during a thirty minute test session. […] The ratio of the ED50 for stereotyped behavior of the ED50 for climbing is calculated.

The next test concerns the target T1, D-2 dopamine receptor (Rattus norvegicus, UniProt P61169).
T1 construct: from tissue; host or cells: homogenized limbic brain tissue
Briefly: [^3 H] Spiroperidol binding inhibition (D-2 dopamine receptor, homogenized limbic brain tissue). The source says: The results of this testing with compounds representative of the invention whose production is exemplified, infra, are as follows: […]

Test [4] has as its target T2, 5-HT1A serotonin receptor (Rattus norvegicus, UniProt P19327).
T2 construct: from tissue
T2 sequence (P19327 1-422): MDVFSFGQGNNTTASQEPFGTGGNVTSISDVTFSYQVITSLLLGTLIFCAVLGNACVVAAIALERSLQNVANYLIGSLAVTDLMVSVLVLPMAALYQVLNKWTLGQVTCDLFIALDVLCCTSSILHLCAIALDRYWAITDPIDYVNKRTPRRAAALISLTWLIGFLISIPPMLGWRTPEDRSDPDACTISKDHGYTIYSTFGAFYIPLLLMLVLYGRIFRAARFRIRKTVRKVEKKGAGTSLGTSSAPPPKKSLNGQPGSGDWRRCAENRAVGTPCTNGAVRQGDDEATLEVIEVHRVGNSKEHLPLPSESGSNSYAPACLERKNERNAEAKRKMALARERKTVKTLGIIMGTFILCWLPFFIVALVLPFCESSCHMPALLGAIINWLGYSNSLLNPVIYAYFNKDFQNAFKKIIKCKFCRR
Description: Inhibition of [^3 H] 8-OH DPAT binding.
Source text: 8-OH DPAT (dipropylaminotetralin) from the 5-HT1A serotonin receptor by the procedure of Hall et al., J. Neurochem.

Where [5] appears, read: read-out: Apomorphine Antagonism, Climbing ED50.
Where [6] appears, read: read-out: Apomorphine Antagonism, Stereotypy ED50.

Read-outs that look alike come from different tables or passages of the source.

T1 sequence (P61169 whole entry): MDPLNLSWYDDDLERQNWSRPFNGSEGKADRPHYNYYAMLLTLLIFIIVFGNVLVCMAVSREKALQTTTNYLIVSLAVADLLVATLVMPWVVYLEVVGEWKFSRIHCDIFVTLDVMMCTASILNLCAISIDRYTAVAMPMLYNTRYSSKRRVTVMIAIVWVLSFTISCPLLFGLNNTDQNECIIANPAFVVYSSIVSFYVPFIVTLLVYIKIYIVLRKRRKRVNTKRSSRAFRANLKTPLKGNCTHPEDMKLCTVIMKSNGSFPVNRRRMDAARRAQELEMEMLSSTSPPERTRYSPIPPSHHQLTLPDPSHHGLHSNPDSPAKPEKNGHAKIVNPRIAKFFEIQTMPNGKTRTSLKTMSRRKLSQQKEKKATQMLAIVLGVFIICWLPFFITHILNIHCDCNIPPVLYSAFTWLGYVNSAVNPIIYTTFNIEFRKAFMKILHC

In the case of `O=C1C2CCCC(C2)C(=O)N1CCCCN1CCN(c2ncccn2)CC1` [Example 1, 3-[4-[4-(2-Pyrimidinyl)-1-piperazinyl]butyl]-3-azabicyclo[3.3.1]nonane-2,4-dione], the inhibition in vivo (usually the relative decrease from the control value, in per cent) at 40 mg/kg in test [1] was about 80%. Besides, the “Conditioned Avoidance, Discrete Trial AB50” value (“Conditioned Avoidance” below) in test [2] is “inactive”. The “Apomorphine Antagonism, Stereotypy ED50” value in test [3] was “inactive”. Also, the inhibition (commonly the share of the control response that was lost under treatment) at 1 µM on D-2 dopamine receptor was 38%. In test [4], the Ki – broadly, the dissociation constant of the complex between target and ligand, obtained from inhibition or displacement – was 10 nM.
For the molecule `O=C1C2CCC(C2)C(=O)N1CCCCN1CCN(c2ncccn2)CC1` [Example 2, 3-[4-[4-(2-Pyrimidinyl)-1-piperazinyl]butyl]-3-azabicyclo[3.2.1]octane-2,4-dione], the inhibition in vivo at 40 mg/kg in test [1] was over 20%. In addition, in test [2], the “Conditioned Avoidance” value is listed as “weak”. The “Apomorphine Antagonism, Stereotypy ED50” value in test [3] was “inactive”. For the same molecule, the Ki at D-2 dopamine receptor stood at 2610 nM; in test [4], 106 nM.
`O=C1C2CCC(O2)C(=O)N1CCCCN1CCN(c2ncccn2)CC1` [Example 3, 3-[4-[4-(2-Pyrimidinyl)-1-piperazinyl]butyl]-8-oxa-3-azabicyclo[3.2.1]octane-2,4-dione]: the inhibition in vivo at 40 mg/kg in test [1] is about 80%. Also, in test [2], the “Conditioned Avoidance” value is “weak”. In addition, in test [3], the “Apomorphine Antagonism, Stereotypy ED50” value is “inactive”. In addition, the inhibition at 1 µM on D-2 dopamine receptor came out at 44%. In addition, the affinity in test [4] corresponds to a Ki of 31 nM.
`O=C1C2CCC(S2)C(=O)N1CCCCN1CCN(c2ncccn2)CC1` [Example 4, 3-[4-[4-(2-Pyrimidinyl)-1-piperazinyl]butyl]-8-thia-3-azabicyclo[3.2.1]octane-2,4-dione] had an inhibition in vivo at 40 mg/kg in test [1] of over 20%. Besides, the “Conditioned Avoidance” value in test [2] was “inactive”. For the same molecule, the ED50 in test [3] (setting [5]) was determined as 53.3 mg/kg. In test [3], the “Apomorphine Antagonism, Stereotypy ED50” value was “inactive”. At D-2 dopamine receptor, this molecule came in with an inhibition at 1 µM of 12%. Also, the affinity in test [4], expressed as Ki, was 46 nM.
Consider `O=C1C2CCCC(S2)C(=O)N1CCCCN1CCN(c2ncccn2)CC1` [Example 5, 3-[4-[4-(2-Pyrimidinyl)-1-piperazinyl]butyl]-9-thia-3-azabicyclo[3.3.1]nonane-2,4-dione], for which the inhibition in vivo at 40 mg/kg in test [1] was over 20%. In addition, the ED50 in test [2] amounted to 47.3 mg/kg. Further, in test [3], the “Apomorphine Antagonism, Climbing ED50” value was “inactive” and the “Apomorphine Antagonism, Stereotypy ED50” value was “inactive”. Also, at D-2 dopamine receptor, the inhibition at 1 µM amounted to 27%. This molecule showed a Ki in test [4] of 16 nM.
On to `O=C1C2CCCC(C(=O)N1CCCCN1CCN(c3ncccn3)CC1)[S+]2[O-]` (stereo not drawn) [Example 6, 3-[4-[4-(2-Pyrimidinyl)-1-piperazinyl]butyl]-9-thia-3-azabicyclo[3.3.1]nonane-2,4-dione-9-oxide], for which the inhibition in vivo at 40 mg/kg in test [1] is over 20%. Also, the “Conditioned Avoidance” value in test [2] was “inactive”. Besides, in test [3], the “Apomorphine Antagonism, Climbing ED50” value is “inactive” and the “Apomorphine Antagonism, Stereotypy ED50” value is “inactive”. At 1 µM the inhibition on D-2 dopamine receptor was 14%. In test [4], this molecule had a Ki of 90 nM.
In test [1], `O=C1C2CCCC(C2)C(=O)N1CCCCN1CCN(c2cncc(Cl)n2)CC1` [Example 7, 2-[4-[4-(6-Chloro-2-pyrazinyl)-1-piperazinyl]butyl]-3-azabicyclo[3.3.1]nonane-2,4-dione] had an inhibition in vivo at 40 mg/kg of about 80%. Also, the ED50 in test [2] amounted to 34.1 mg/kg. In addition, the “Apomorphine Antagonism, Stereotypy ED50” value in test [3] is “inactive”. The molecule further had an inhibition at 1 µM at D-2 dopamine receptor of 21%. Besides, the Ki in test [4] was determined as 31 nM.
As for `O=C1C2CCC(C2)C(=O)N1CCCCN1CCN(c2cncc(Cl)n2)CC1` [Example 8, 3-[4-[4-(6-Chloro-2-pyrazinyl)-1-piperazinyl]butyl]-3-azabicyclo[3.2.1]octane-2,4-dione], the inhibition in vivo at 40 mg/kg in test [1] is about 80%. The figures for the ED50 in test [2] and in test [3] (setting [5]) were 33.6 mg/kg and 15.7 mg/kg, respectively. The “Apomorphine Antagonism, Stereotypy ED50” value in test [3] was “inactive”. For the same molecule, the inhibition at 1 µM on D-2 dopamine receptor was 12%; in test [4] it was 68%.
Molecule `O=C1C2CCC(C2)C(=O)N1CCCCN1CCN(c2ccc3ccccc3n2)CC1` [Example 9, 3-[4-[4-(2-Quinolyl)-1-piperazinyl]butyl]-3-azabicyclo[3.2.1]octane-2,4-dione] displayed an inhibition in vivo at 40 mg/kg in test [1] of over 20%. The ED50 in test [2] is 98.2 mg/kg; in test [3] (setting [5]) it was 40.9 mg/kg. Further, the “Apomorphine Antagonism, Stereotypy ED50” value in test [3] is “inactive”. In addition, at 1 µM the inhibition at D-2 dopamine receptor was 31%. Besides, affinity in test [4] was put at a Ki of 60 nM.
`O=C1C2CCC(C2)C(=O)N1CCCCN1CCN(c2cccc(C(F)(F)F)c2)CC1` [Example 10, 3-[4-[4-[3-(Trifluoromethyl)phenyl]-1-piperazinyl]butyl]-3-azabicyclo[3.2.1]octane-2,4-dione]: the inhibition in vivo at 40 mg/kg in test [1] was about 80%. Besides, the ED50 in test [2] worked out at 7.03 mg/kg; in test [3] (setting [5]) it was 1.05 mg/kg; in test [3] (setting [6]), 4.98 mg/kg. For the same molecule, the Ki was found to be 80 nM on D-2 dopamine receptor and 3.61 nM in test [4].
`O=C1C2CCC(C2)C(=O)N1CCCCN1CCN(c2cccc(Cl)c2)CC1` [Example 11, 3-[4-[4-(3-Chlorophenyl)-1-piperazinyl]butyl]-3-azabicyclo[3.2.1]octane-2,4-dione]: the inhibition in vivo at 40 mg/kg in test [1] was about 80%. The ED50 was 27.1 mg/kg in test [2], 0.79 mg/kg in test [3] (setting [5]) and 2.2 mg/kg in test [3] (setting [6]). Besides, the Ki on D-2 dopamine receptor was found to be 130 nM; in test [4], 3.89 nM.
`O=C1C2CCC(O2)C(=O)N1CCCCN1CCN(c2cncc(Cl)n2)CC1` [Example 12, 3-[4-[4-(6-Chloro-2-pyrazinyl)-1-piperazinyl]butyl]-8-oxa-3-azabicyclo[3.2.1]octane-2,4-dione]: the inhibition in vivo at 40 mg/kg in test [1] is over 20%. Besides, in test [2], the “Conditioned Avoidance” value is recorded as “weak”. Also, the ED50 in test [3] (setting [5]) was found to be 51.6 mg/kg. Further, the “Apomorphine Antagonism, Stereotypy ED50” value in test [3] was “inactive”. Also, the inhibition at 1 µM on D-2 dopamine receptor stood at 7%; in test [4], 54%.
`O=C1C2CCCC(O2)C(=O)N1CCCCN1CCN(c2ncccn2)CC1` [Example 13, 3-[4-[4-(2-Pyrimidinyl)-1-piperazinyl]butyl]-9-oxa-3-azabicyclo[3.3.1]nonane-2,4-dione] displayed an inhibition in vivo at 40 mg/kg in test [1] of about 80%. The ED50 in test [2] came out at 86.2 mg/kg; in test [3] (setting [5]), 0.24 mg/kg. Further, the “Apomorphine Antagonism, Stereotypy ED50” value in test [3] was “inactive”. In addition, at D-2 dopamine receptor, 1 µM produced 17% inhibition. The Ki in test [4] came to 122 nM.
With `O=C1C2CCCC(S2)C(=O)N1CCCCN1CCN(c2cncc(Cl)n2)CC1` [Example 14, 3-[4-[4-(6-Chloro-2-pyrazinyl)-1-piperazinyl]butyl]-9-thia-3-azabicyclo[3.3.1]nonane-2,4-dione], in test [1], the inhibition in vivo at 40 mg/kg was over 20%. In addition, in test [2], the ED50 came out at 35.6 mg/kg. Further, the “Apomorphine Antagonism, Stereotypy ED50” value in test [3] is “inactive”. The inhibition at 1 µM at D-2 dopamine receptor is 34%. Moreover, the Ki in test [4] stood at 35.2 nM.
On to `O=C1C2CCCC(O2)C(=O)N1CCCCN1CCN(c2cncc(Cl)n2)CC1` [Example 15, 3-[4-[4-(6-Chloro-2-pyrazinyl)-1-piperazinyl]butyl]-9-oxa-3-azabicyclo[3.3.1]nonane-2,4-dione], for which the inhibition in vivo at 40 mg/kg in test [1] was about 80%. In addition, in test [2], the “Conditioned Avoidance” value is given as “weak”. For the same molecule, in test [3], the “Apomorphine Antagonism, Stereotypy ED50” value is “inactive”. In addition, the inhibition at 1 µM worked out at 21% on D-2 dopamine receptor and 63% in test [4].
Consider `O=C1CC2(CCCC2)CC(=O)N1CCCCN1CCN(c2ncccn2)CC1` [buspirone, reference compound], for which the “Affinity for the 5-HT1A serotonin receptor (in words)” value in test [4] was “potent affinity”.
As to `CN(C)CCCN1c2ccccc2Sc2ccc(Cl)cc21` [chlorpromazine, reference compound], the “Ratio of ED50 for stereotyped behavior to ED50 for climbing” value in test [3] was 1.51.
Still for that read-out and setting: the figure for `O=C(CCCN1CCC(O)(c2ccc(Cl)cc2)CC1)c1ccc(F)cc1` [haloperidol, reference compound] is 1.00.

Values taken from patent publication US4748240A, “Psychotropic bicyclic imides” (American Home Products Corporation, priority 1987, dated 1988).
